Target: MRCKα (Homo sapiens, UniProt Q5VT25)
Assay: HotSpot radiometric kinase assay, MRCKα
Format: biochemical
Details: compound 0.5 μM, 10 μM ATP

MRCKα, sequence (Q5VT25 1-473): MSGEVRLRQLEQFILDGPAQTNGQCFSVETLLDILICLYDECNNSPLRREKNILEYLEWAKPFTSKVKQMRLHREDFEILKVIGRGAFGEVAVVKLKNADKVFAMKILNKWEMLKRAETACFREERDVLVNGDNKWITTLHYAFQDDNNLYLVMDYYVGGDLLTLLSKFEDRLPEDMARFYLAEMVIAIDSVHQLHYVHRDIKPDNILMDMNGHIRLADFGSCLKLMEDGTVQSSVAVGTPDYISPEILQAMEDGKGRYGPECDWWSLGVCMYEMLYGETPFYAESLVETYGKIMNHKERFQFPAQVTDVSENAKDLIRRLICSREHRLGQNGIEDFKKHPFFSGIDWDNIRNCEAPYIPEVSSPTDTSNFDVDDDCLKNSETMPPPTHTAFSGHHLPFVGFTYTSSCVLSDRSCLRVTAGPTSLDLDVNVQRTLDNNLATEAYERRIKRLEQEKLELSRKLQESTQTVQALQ

- inhibition of MRCKα (next most potent target): 22%
SMILES: O=C(Nc1cccc(Nc2cc(Nc3cccc(C(F)(F)F)c3)ncn2)c1)C1CC1 [EGFR Inhibitor]

Source: publication PMC3230241 (Nature biotechnology, 2011)
